Experimental data reported in paper PMC5908784, “Extracellular loops 2 and 3 of the calcitonin receptor selectively modify agonist binding and efficacy” (Biochemical Pharmacology, 2018).
Positions count from the first letter of the chain named. Where a SMILES comes first, the peptide text is derived from it. Bridges are numbered along the chain shown (N, C = ends).

Key:
Assay in all cases: IP1 accumulation
Format in all cases: cell-based
Details in all cases: mean ± S.E.M.; for Emax: IP1 maximal response, SEM
[1] = biological target: T1, hCTR V375A (Homo sapiens, UniProt P30988, V375A)
T1 construct: c-Myc (N); expressed in transfected cells
T1 sequence (P30988 25-474 V375A): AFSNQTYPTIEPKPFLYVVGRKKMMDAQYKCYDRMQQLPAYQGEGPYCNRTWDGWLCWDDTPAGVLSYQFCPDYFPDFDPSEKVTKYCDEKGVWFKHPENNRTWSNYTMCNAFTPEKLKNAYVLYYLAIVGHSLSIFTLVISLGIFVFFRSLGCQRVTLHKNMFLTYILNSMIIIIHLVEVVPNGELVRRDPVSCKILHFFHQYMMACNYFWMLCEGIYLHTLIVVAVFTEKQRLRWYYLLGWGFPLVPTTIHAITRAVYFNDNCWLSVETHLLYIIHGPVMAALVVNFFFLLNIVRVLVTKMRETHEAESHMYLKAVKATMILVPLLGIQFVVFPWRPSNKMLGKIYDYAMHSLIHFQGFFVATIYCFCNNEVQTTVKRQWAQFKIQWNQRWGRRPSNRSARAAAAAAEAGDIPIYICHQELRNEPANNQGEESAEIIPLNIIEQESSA
Procedure, shortened: (§1)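 Concentration-response curves were fitted to a 3-parameter logistic model to estimate EC50 and Emax. Cells had been exposed to ligand for 60 min with LiCl, and lysate IP1 determined by HTRF, with normalization to 100 μM ATP.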

[2] = biological target: T2, hCTR I279A (Homo sapiens, UniProt P30988, I279A)
T2 construct: expressed in transfected cells
T2 sequence (P30988 25-474 I279A): T1 sequence (P30988 25-474 V375A) with I255A, A351V
Procedure, shortened: as §1

[3] = biological target: T3, hCTR L291A (Homo sapiens, UniProt P30988, L291A)
T3 construct: expressed in transfected cells
T3 sequence (P30988 25-474 L291A): T1 sequence (P30988 25-474 V375A) with L267A, A351V
Procedure, shortened: as §1

[4] = biological target: T4, hCTR Y299A (Homo sapiens, UniProt P30988, Y299A)
T4 construct: c-Myc (N); expressed in transfected cells
T4 sequence (P30988 25-474 Y299A): T1 sequence (P30988 25-474 V375A) with Y275A, A351V
Procedure, shortened: as §1

[5] = biological target: T5, hCTR R362A (Homo sapiens, UniProt P30988, R362A)
T5 construct: expressed in transfected cells
T5 sequence (P30988 25-474 R362A): T1 sequence (P30988 25-474 V375A) with R338A, A351V
Procedure, shortened: as §1

[6] = IP1, CV1-FlpIn cells, 60 min, LiCl

| EC50 [1, 6] [nM] | EC50 [2, 6] [nM] | EC50 [3, 6] [nM] | EC50 [4, 6] [nM] | EC50 [5, 6] [nM] | SMILES | Emax [1] [%] | Emax [2] [%] | Emax [3] [%] | Emax [4] [%] | Emax [5] [%] |
| --- | --- | --- | --- | --- | --- | --- | --- | --- | --- | --- |
| – | – | – | – | – | CC[C@H](C)[C@H](NC(=O)[C@H](C)NC(=O)[C@@H](NC(=O)[C@H](CCC(N)=O)NC(=O)[C@@H]1CCCN1C(=O)[C@H](Cc1ccccc1)NC(=O)[C@@H](NC(=O)[C@H](Cc1c[nH]cn1)NC(=O)[C@H](Cc1ccccc1)NC(=O)[C@H](CCCCN)NC(=O)[C@H](CC(N)=O)NC(=O)[C@H](Cc1ccccc1)NC(=O)[C@H](CC(=O)O)NC(=O)[C@H](CCC(N)=O)NC(=O)[C@@H](NC(=O)[C@H](Cc1ccc(O)cc1)NC(=O)[C@@H](NC(=O)CNC(=O)[C@H](CC(C)C)NC(=O)[C@H](CCSC)NC(=O)[C@@H]1CSSC[C@H](N)C(=O)NCC(=O)N[C@@H](CC(N)=O)C(=O)N[C@@H](CC(C)C)C(=O)N[C@@H](CO)C(=O)N[C@@H]([C@@H](C)O)C(=O)N1)[C@@H](C)O)[C@@H](C)O)[C@@H](C)O)[C@@H](C)O)C(=O)NCC(=O)N[C@H](C(=O)NCC(=O)N[C@@H](C)C(=O)N1CCC[C@H]1C(N)=O)C(C)C [hCT] | 104 ± 6 | 79 ± 7 | 71 ± 16 | 34 ± 5 | 77 ± 11 |
| 1.17 | 6.61 | 1.62 | 0.417 | 19.5 | CSCC[C@H](NC(=O)CNC(=O)[C@H](CO)NC(=O)[C@H](Cc1ccccc1)NC(=O)[C@H](CCCNC(=N)N)NC(=O)[C@H](Cc1c[nH]cn1)NC(=O)[C@H](Cc1ccccc1)NC(=O)[C@H](CC(N)=O)NC(=O)[C@H](CC(N)=O)NC(=O)[C@H](CC(C)C)NC(=O)[C@H](CC(N)=O)NC(=O)[C@H](CCCNC(=N)N)NC(=O)[C@H](Cc1c[nH]c2ccccc12)NC(=O)[C@H](Cc1ccc(O)cc1)NC(=O)[C@H](C)NC(=O)[C@H](CO)NC(=O)[C@H](CC(C)C)NC(=O)[C@@H](NC(=O)[C@@H]1CSSC[C@H](N)C(=O)N[C@@H](CO)C(=O)N[C@@H](CC(N)=O)C(=O)N[C@@H](CC(C)C)C(=O)N[C@@H](CO)C(=O)N[C@@H]([C@@H](C)O)C(=O)N1)C(C)C)C(=O)NCC(=O)N[C@@H](Cc1ccccc1)C(=O)NCC(=O)N1CCC[C@H]1C(=O)N[C@@H](CCC(=O)O)C(=O)N[C@H](C(=O)N1CCC[C@H]1C(N)=O)[C@@H](C)O [pCT] (H-CSNLSTCVLSAYWRNLNNFHRFSGMGFGPETP-NH2; disulfide 1-7) | 100 ± 5 | 116 ± 10 | 67 ± 6 | 52 ± 3 | 47 ± 9 |
| – | – | – | – | – | CC(C)C[C@H](NC(=O)[C@H](CCCCN)NC(=O)CNC(=O)[C@H](CC(C)C)NC(=O)[C@@H](NC(=O)[C@@H]1CSSC[C@H](N)C(=O)N[C@@H](CO)C(=O)N[C@@H](CC(N)=O)C(=O)N[C@@H](CC(C)C)C(=O)N[C@@H](CO)C(=O)N[C@@H]([C@@H](C)O)C(=O)N1)C(C)C)C(=O)N[C@@H](CO)C(=O)N[C@@H](CCC(N)=O)C(=O)N[C@@H](CCC(=O)O)C(=O)N[C@@H](CC(C)C)C(=O)N[C@@H](Cc1c[nH]cn1)C(=O)N[C@@H](CCCCN)C(=O)N[C@@H](CC(C)C)C(=O)N[C@@H](CCC(N)=O)C(=O)N[C@H](C(=O)N[C@@H](Cc1ccc(O)cc1)C(=O)N1CCC[C@H]1C(=O)N[C@@H](CCCNC(=N)N)C(=O)N[C@H](C(=O)N[C@@H](CC(N)=O)C(=O)N[C@H](C(=O)NCC(=O)N[C@@H](CO)C(=O)NCC(=O)N[C@H](C(=O)N1CCC[C@H]1C(N)=O)[C@@H](C)O)[C@@H](C)O)[C@@H](C)O)[C@@H](C)O [sCT] | 87 ± 5 | 97 ± 7 | 85 ± 4 | 54 ± 5 | 64 ± 5 |
